ChEMBL document CHEMBL4052584, “Toward Understanding the Structural Basis of Partial Agonism at the Dopamine D3 Receptor” (J Med Chem, 2017)
Activity calls are given as the source filed them. The rule behind the calls is not given here.

Legend:
[1] = biological target: D(2) dopamine receptor (Homo sapiens, UniProt P14416); experiment: Displacement of [3H]-N-methylspiperone from human dopamine D2 receptor expressed in HEK293 cells after 1 hr by MicroBeta microplate counting method; assay type: cell-based
[2] = species on record: Homo sapiens; experiment: Selectivity ratio of Ki for human dopamine D2 receptor to Ki for human dopamine D3 receptor
[3] = biological target: T1, D(3) dopamine receptor (Homo sapiens, UniProt P35462); experiment: Displacement of [3H]-N-methylspiperone from human dopamine D3 receptor expressed in HEK293 cells after 1 hr by MicroBeta microplate counting method; assay type: cell-based
[4] = biological target: T1, D(3) dopamine receptor; experiment: Partial agonist activity at dopamine D3 receptor (unknown origin) expressed in HEK293 cells at 10 pM to 100 uM after 2 mins by BRET-based Go activation assay relative to dopamine; assay type: cell-based; conditions: for Emax: 10 pM
[5] = biological target: T1, D(3) dopamine receptor; experiment: Partial agonist activity at dopamine D3 receptor (unknown origin) expressed in HEK293 cells at 10 pM to 100 uM after 30 mins by beta-arrestin recruitment assay relative to dopamine; assay type: cell-based

T1 sequence (P35462 whole entry): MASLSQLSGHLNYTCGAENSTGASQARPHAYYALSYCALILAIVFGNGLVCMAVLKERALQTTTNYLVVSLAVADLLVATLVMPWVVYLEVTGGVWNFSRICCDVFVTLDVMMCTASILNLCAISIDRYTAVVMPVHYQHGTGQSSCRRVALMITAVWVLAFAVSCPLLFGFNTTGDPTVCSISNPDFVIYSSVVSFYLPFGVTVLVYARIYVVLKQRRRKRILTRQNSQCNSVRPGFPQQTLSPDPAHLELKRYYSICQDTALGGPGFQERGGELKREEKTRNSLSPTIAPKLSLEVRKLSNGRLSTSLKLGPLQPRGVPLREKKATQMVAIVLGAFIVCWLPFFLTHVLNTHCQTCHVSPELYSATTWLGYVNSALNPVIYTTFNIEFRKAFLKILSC
D(2) dopamine receptor, sequence (P14416 whole entry): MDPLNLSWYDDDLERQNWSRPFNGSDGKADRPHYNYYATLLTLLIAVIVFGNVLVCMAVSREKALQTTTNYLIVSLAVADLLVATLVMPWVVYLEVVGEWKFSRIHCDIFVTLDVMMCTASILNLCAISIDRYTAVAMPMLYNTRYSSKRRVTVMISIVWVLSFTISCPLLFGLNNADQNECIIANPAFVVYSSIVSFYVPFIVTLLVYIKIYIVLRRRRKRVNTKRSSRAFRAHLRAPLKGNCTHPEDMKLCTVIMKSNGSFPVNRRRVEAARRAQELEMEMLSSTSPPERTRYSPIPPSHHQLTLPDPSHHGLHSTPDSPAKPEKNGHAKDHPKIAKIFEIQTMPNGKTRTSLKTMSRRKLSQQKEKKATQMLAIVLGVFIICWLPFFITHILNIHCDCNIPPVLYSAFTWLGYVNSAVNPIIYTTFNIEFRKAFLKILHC

SMILES	Ki [1]	Ratio Ki [2]	Ki [3]	Emax [4]	Activity [5]	Activity ([4]; 10 pM to 100 uM)
O=C(NCCC(O)CN1CCN(c2cccc(Cl)c2Cl)CC1)c1cnc2ccccc2c1 (racemic)	268 nM	63	4.26 nM			
CC[C@H](O)CN1CCN(c2cccc(Cl)c2Cl)CC1	93.1 nM	3	34.3 nM	58.6%	Active	
O=C(NCC[C@@H](O)CN1CCN(c2cccc(Cl)c2Cl)CC1)c1cc2ccccc2[nH]1				14.9%	inactive	
O=C(NCC[C@@H](O)CN1CCN(c2cccc(Cl)c2Cl)CC1)c1cnc2ccccc2c1	202 nM	49	4.12 nM	19.9%	inactive	
C[C@H](O)CN1CCN(c2cccc(Cl)c2Cl)CC1	317 nM	4	75.2 nM			
C[C@@H](O)CN1CCN(c2cccc(Cl)c2Cl)CC1	1400 nM	4	373 nM			
O=C(NCC[C@H](O)CN1CCN(c2cccc(Cl)c2Cl)CC1)c1cnc2ccccc2c1	316 nM	14	23.4 nM	53.9%	Active	
CCCCN1CCN(c2cccc(Cl)c2Cl)CC1		2				inactive
O=C(NCCCCN1CCN(c2cccc(Cl)c2Cl)CC1)c1cnc2ccccc2c1	10 nM	58	0.172 nM	20.9%		
CC[C@@H](O)CN1CCN(c2cccc(Cl)c2Cl)CC1	588 nM	5	119 nM	11.6%	inactive	
O=C(NCC[C@H](O)CN1CCN(c2cccc(Cl)c2Cl)CC1)c1cc2ccccc2[nH]1				55.7%	Active	
